Consider ten compounds from patent US12643871B2, “Aryl formamide compound containing chiral sulfur oxide or salt thereof, preparation method, herbicidal composition and use thereof” (Qingdao Kingagroot Chemical Compound Co., Ltd., priority 2019, dated 2026).

Common to all, as to type: in vivo
Assay [1] concerns Abutilon theophrasti. In words: Weeding effect in post-emergence stage. As to conditions: 250 g/ha; 2 leaf stage; 15 days after application; fresh weight control rate. In a few lines:
(§1)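 Greenhouse pot-grown weeds were sprayed at the 2-leaf stage, 2 weeks after sowing, with compound in acetone/Tween 80 plus 1.5 L/ha methyl oleate EC, at 500, 250, 125, 60, 30 or 15 g/ha. Fresh-weight growth control was scored 15 days later on a 0–5 scale, mean of three repeats.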

Assay [2] concerns Setaria viridis. In words: Weeding effect in post-emergence stage. As to conditions: 250 g/ha; 2 leaf stage; 15 days after application; fresh weight control rate. In a few lines: as §1
The subject of assay [3] is Digitaria sanguinalis. Kind of assay: Weeding effect in post-emergence stage. To be noted: 250 g/ha; 2 leaf stage; 15 days after application; fresh weight control rate. In a few lines:
as §1

Assay [4] deals with Amaranthus retroflexus. In words: Weeding effect in post-emergence stage. As to conditions: 250 g/ha; 2 leaf stage; 15 days after application; fresh weight control rate. In a few lines: as §1
For assay [5], the system named is Echinochloa crusgali. Kind of assay: Weeding effect in post-emergence stage. As to conditions: 250 g/ha; 2 leaf stage; 15 days after application; fresh weight control rate. In a few lines: as §1
The test system of assay [6] is key weeds such as Digitaria sanguinalis, Leptochloa chinensis. Kind of assay: Comparison experiment (post-emergence, Tables 4-7), herbicidal activity on weeds not listed separately. The text has this: The above growth control rates are fresh weight control rates.
Experiment on weeding effect in post-emergence stage: monocotyledonous and dicotyledonous weed seeds (Descurainia sophia, Capsella bursa-pastoris, Galium aparine, Stellaria media, Lithospermum arvense, Rorippa indica, Alopecurus aequalis, Beckmannia syzigachne, Sclerochloa dura, Phleum paniculatum, Bromus japonicus, Aegilops tauschii, Phalaris arundinacea, Amaranthus retroflexus, Chenopodiaceae, Commelina communis, Sonchus arvensis, convolvulus arvensis, Cirsium setosum, Solanum nigrum, Acalypha australis, Digitaria sanguinalis, Echinochloa crusgalli, Setaria viridis, Setaria glauca, Leptochloa chinensis, Monochoria vaginalis, Sagittaria trifolia, Scirpus juncoides, Cyperus rotundus, Cyperus iria, Cyperus difformis, Fimbristylis, Portulaca oleracea, Xanthium sibiricum, Pharbitis nil) and major crop seeds (wheat, corn, rice, soybean, cotton, oilseed rape, millet, sorghum, potato, sesame, ricinus) were placed in plastic pots filled with soil, then covered with 0.5-2 cm of soil, allowed to grow in a good greenhouse environment. After 2 weeks of sowing, the test plants were treated in the 2 leaf stage. The tested compounds of the present invention were respectively dissolved in acetone, then added with Tween 80 and 1.5 liter/ha of emulsifiable concentrate of methyl oleate as synergist, diluted with a certain amount of water to obtain a solution with a certain concentration, and sprayed with a spray tower onto the plants. After the application, the plants were cultured for 15 days in the greenhouse, and then the experimental results of the weeding were counted. The doses of the used compounds were 500, 250, 125, 60, 30, 15 g/ha, and the averages were obtained by repeating for three times.
If there is no clear marker, the post-seedling test conditions are the same as above, and the experimental results are shown in Tables 4-7.

The mark [7] stands for this setting: doses of 125, 60, 30, 15 g/ha, X replaced by other five membered rings.

As for `COc1c(C(=O)Nc2nnc(C)o2)ccc(C(F)(F)F)c1[S@+]([O-])CCON=C(C)C` [Compound 348], the “weeding effect in post-emergence stage, activity level (growth control rate), Abutilon theophrasti” value (“weeding effect … Abutilon theophrasti” for short) in assay [1] was 5 (Level 5: growth control rate is above 85%). Besides, the “weeding effect in post-emergence stage, activity level (growth control rate), Setaria viridis” value (from here on “weeding effect … Setaria viridis”) in assay [2] was 5 (Level 5: growth control rate is above 85%). Further, the “weeding effect in post-emergence stage, activity level (growth control rate), Digitaria sanguinalis” value (“weeding effect … Digitaria sanguinalis” for short) in assay [3] was 5 (Level 5: growth control rate is above 85%). For the same compound, the “weeding effect in post-emergence stage, activity level (growth control rate), Amaranthus retroflexus” value (shortened to “weeding effect … Amaranthus retroflexus”) in assay [4] is 5 (Level 5: growth control rate is above 85%). Besides, the “weeding effect in post-emergence stage, activity level (growth control rate), Echinochloa crusgali” value (“weeding effect … Echinochloa crusgali” for short) in assay [5] is reported as 5 (Level 5: growth control rate is above 85%). Also, the “herbicidal activity and/or crop safety compared with the corresponding racemate or S configuration” value in assay [6] (no dose stated) is given as “better herbicidal activity and/or crop safety”.

`CCC[S@@+]([O-])c1c(C(F)(F)F)ccc(C(=O)Nc2nnnn2C)c1F` [Compound 379]: the “weeding effect … Abutilon theophrasti” value in assay [1] is on record as 5 (Level 5: growth control rate is above 85%). In assay [2], the “weeding effect … Setaria viridis” value is reported as 5 (Level 5: growth control rate is above 85%). Moreover, the “weeding effect … Digitaria sanguinalis” value in assay [3] is given as 5 (Level 5: growth control rate is above 85%). Besides, the “weeding effect … Amaranthus retroflexus” value in assay [4] is 5 (Level 5: growth control rate is above 85%). Besides, the “weeding effect … Echinochloa crusgali” value in assay [5] is given as 5 (Level 5: growth control rate is above 85%). In addition, the “herbicidal activity and/or crop safety compared with the corresponding racemate or S configuration” value in assay [6] (setting [7]) is on record as “better herbicidal activity and/or crop safety”.

For `CC(C)C[S@@+]([O-])c1c(C(F)(F)F)ccc(C(=O)Nc2nnnn2C)c1F` [Compound 380], in assay [1], the “weeding effect … Abutilon theophrasti” value was 5 (Level 5: growth control rate is above 85%). Also, the “weeding effect … Setaria viridis” value in assay [2] is reported as 5 (Level 5: growth control rate is above 85%). Moreover, the “weeding effect … Digitaria sanguinalis” value in assay [3] is listed as 5 (Level 5: growth control rate is above 85%). The “weeding effect … Amaranthus retroflexus” value in assay [4] is on record as 5 (Level 5: growth control rate is above 85%). In assay [5], the “weeding effect … Echinochloa crusgali” value is 5 (Level 5: growth control rate is above 85%). Moreover, the “herbicidal activity and/or crop safety compared with the corresponding racemate or S configuration” value in assay [6] (setting [7]) is listed as “better herbicidal activity and/or crop safety”.

For `CCCC[S@@+]([O-])c1c(C(F)(F)F)ccc(C(=O)Nc2nnc(C)o2)c1SC` [Compound 550], the “weeding effect … Abutilon theophrasti” value in assay [1] was 5 (Level 5: growth control rate is above 85%). Further, the “weeding effect … Setaria viridis” value in assay [2] is reported as 5 (Level 5: growth control rate is above 85%). The “weeding effect … Digitaria sanguinalis” value in assay [3] was 5 (Level 5: growth control rate is above 85%). The “weeding effect … Amaranthus retroflexus” value in assay [4] is recorded as 5 (Level 5: growth control rate is above 85%). Besides, in assay [5], the “weeding effect … Echinochloa crusgali” value is 5 (Level 5: growth control rate is above 85%). Also, the “herbicidal activity and/or crop safety compared with the corresponding racemate or S configuration” value in assay [6] (dose of 120, 48, 30, 24 g/ha) is listed as “better herbicidal activity and/or crop safety”.

With `C=CC[S@@+]([O-])c1c(C(F)(F)F)ccc(C(=O)Nc2nnc(C)o2)c1SC` [Compound 552], the “weeding effect … Abutilon theophrasti” value in assay [1] is 5 (Level 5: growth control rate is above 85%). In addition, the “weeding effect … Setaria viridis” value in assay [2] is recorded as 5 (Level 5: growth control rate is above 85%). The “weeding effect … Digitaria sanguinalis” value in assay [3] was 5 (Level 5: growth control rate is above 85%). In assay [4], the “weeding effect … Amaranthus retroflexus” value is on record as 5 (Level 5: growth control rate is above 85%). For the same compound, in assay [5], the “weeding effect … Echinochloa crusgali” value was 5 (Level 5: growth control rate is above 85%). For the same compound, the “herbicidal activity and/or crop safety compared with the corresponding racemate or S configuration” value in assay [6] (dose of 120, 48, 30, 24 g/ha) is given as “better herbicidal activity and/or crop safety”.

Consider `CSc1c(C(=O)Nc2nnc(C)o2)ccc(C(F)(F)F)c1[S@+]([O-])CC1CC1` [Compound 554], for which the “weeding effect … Abutilon theophrasti” value in assay [1] is reported as 5 (Level 5: growth control rate is above 85%). In addition, the “weeding effect … Setaria viridis” value in assay [2] was 5 (Level 5: growth control rate is above 85%). Also, in assay [3], the “weeding effect … Digitaria sanguinalis” value was 5 (Level 5: growth control rate is above 85%). The “weeding effect … Amaranthus retroflexus” value in assay [4] is recorded as 5 (Level 5: growth control rate is above 85%). The “weeding effect … Echinochloa crusgali” value in assay [5] was 5 (Level 5: growth control rate is above 85%). For the same compound, in assay [6] (dose of 120, 48, 30, 24 g/ha), the “herbicidal activity and/or crop safety compared with the corresponding racemate or S configuration” value is listed as “better herbicidal activity and/or crop safety”.

As for `CSc1c(C(=O)Nc2nnc(C)o2)ccc(C(F)(F)F)c1[S@+]([O-])CCCF` [Compound 559], in assay [1], the “weeding effect … Abutilon theophrasti” value was 5 (Level 5: growth control rate is above 85%). Moreover, the “weeding effect … Setaria viridis” value in assay [2] is reported as 5 (Level 5: growth control rate is above 85%). Besides, the “weeding effect … Digitaria sanguinalis” value in assay [3] was 5 (Level 5: growth control rate is above 85%). In addition, the “weeding effect … Amaranthus retroflexus” value in assay [4] was 5 (Level 5: growth control rate is above 85%). Moreover, in assay [5], the “weeding effect … Echinochloa crusgali” value is reported as 5 (Level 5: growth control rate is above 85%). Besides, the “herbicidal activity and/or crop safety compared with the corresponding racemate or S configuration” value in assay [6] (dose of 120, 48, 30, 24 g/ha) was “better herbicidal activity and/or crop safety”.

As for `CCC[S@@+]([O-])c1c(C(F)(F)F)ccc(C(=O)Nc2nnc(C)o2)c1SCC` [Compound 569], the “weeding effect … Abutilon theophrasti” value in assay [1] is 5 (Level 5: growth control rate is above 85%). Further, in assay [2], the “weeding effect … Setaria viridis” value is reported as 5 (Level 5: growth control rate is above 85%). Moreover, the “weeding effect … Digitaria sanguinalis” value in assay [3] is recorded as 5 (Level 5: growth control rate is above 85%). Further, in assay [4], the “weeding effect … Amaranthus retroflexus” value is on record as 5 (Level 5: growth control rate is above 85%). Besides, the “weeding effect … Echinochloa crusgali” value in assay [5] is listed as 5 (Level 5: growth control rate is above 85%). Besides, in assay [6] (dose of 120, 48, 30, 24 g/ha), the “herbicidal activity and/or crop safety compared with the corresponding racemate or S configuration” value is “better herbicidal activity and/or crop safety”.

Turning to `CCC[S@@+]([O-])c1c(C(F)F)ccc(C(=O)Nc2nnnn2C)c1F` [Compound 856], in assay [1], the “weeding effect … Abutilon theophrasti” value is reported as 5 (Level 5: growth control rate is above 85%). Also, in assay [2], the “weeding effect … Setaria viridis” value is reported as 5 (Level 5: growth control rate is above 85%). The “weeding effect … Digitaria sanguinalis” value in assay [3] is 5 (Level 5: growth control rate is above 85%). The “weeding effect … Amaranthus retroflexus” value in assay [4] is 5 (Level 5: growth control rate is above 85%). Further, in assay [5], the “weeding effect … Echinochloa crusgali” value is 5 (Level 5: growth control rate is above 85%). In addition, the “herbicidal activity and/or crop safety compared with the corresponding racemate or S configuration” value in assay [6] (setting [7]) was “better herbicidal activity and/or crop safety”.

Consider `CCC[S@@+]([O-])c1c(C(F)F)ccc(C(=O)Nc2nnc(C)o2)c1OC` [Compound 864], for which, in assay [1], the “weeding effect … Abutilon theophrasti” value is 5 (Level 5: growth control rate is above 85%). For the same compound, the “weeding effect … Setaria viridis” value in assay [2] is given as 5 (Level 5: growth control rate is above 85%). Also, the “weeding effect … Digitaria sanguinalis” value in assay [3] is listed as 5 (Level 5: growth control rate is above 85%). The “weeding effect … Amaranthus retroflexus” value in assay [4] is 5 (Level 5: growth control rate is above 85%). In addition, the “weeding effect … Echinochloa crusgali” value in assay [5] is given as 5 (Level 5: growth control rate is above 85%). For the same compound, the “herbicidal activity and/or crop safety compared with the corresponding racemate or S configuration” value in assay [6] (no dose stated) was “better herbicidal activity and/or crop safety”.
